{
  "source": "patent US20230390303A1",
  "about": "“CANCER TREATMENT BY COMBINATION OF EP4 ANTAGONIST AND IMMUNE CHECKPOINT INHIBITOR” (priority 2020, published 2023)",
  "type_in_all_cases": "in vivo, human",
  "key": {"[1]": {"test_system": "radically unresectable advanced or recurrent colonic/rectal cancer", "experiment": "Open-label, uncontrolled study: Compound A, Nivolumab and XELOX plus Bevacizumab therapy as primary treatment", "settings": "Compound A 20 mg or 40 mg orally once a day + Nivolumab 360 mg IV at 3-week intervals + XELOX plus Bevacizumab therapy; RECIST Guideline 1.1; 10 months after the first patient was registered", "from_the_text": "The purpose of this study is to examine the tolerability, safety, and efficacy of a combination of Compound A, Nivolumab, and XELOX plus Bevacizumab therapy as a primary treatment in patients with radically unresectable advanced or recurrent colonic/rectal cancer. This trial can evaluate the effect of the combination of Compound A, Nivolumab, and a XELOX plus Bevacizumab therapy.\nPatients with radically unresectable advanced or recurrent colonic/rectal cancer.\nAt the time of registration, patients were selected, who had not been treated with a systemic antineoplastic agent for radically unresectable advanced or recurrent colonic/rectal cancer and who met all pre-determined patient selection criteria determined in view of the patient selection criteria in each trial performed so far for Compound A, Nivolumab and XELOX plus Bevacizumab therapy. When it became clear from the registration that the criteria were not satisfied before the first administration of the investigational new drug, the administration of the investigational new drug was not started and the study was discontinued. […]\nA principal investigator or a sub-investigator measured a tumor diameter of a target lesion according to RECIST Guideline 1.1 to determine the antitumor effect. […]"}, "[2]": {"test_system": "pancreatic cancer with distant metastasis", "experiment": "Open-label, uncontrolled study: Compound A, Nivolumab and mFFX therapy or GnP therapy as primary treatment", "settings": "RECIST Guideline 1.1", "from_the_text": "This study aims to study the tolerability, safety and efficacy of a combination of Compound A as a primary treatment, Nivolumab and mFFX therapy or GP therapy in pancreatic cancer patients with distant metastases. The trial could evaluate the effect of the combination with Compound A, Nivolumab and mFFX therapy or Gnp therapy.\nPancreatic cancer patients with distant metastases\nAt the time of registration, patients who had not been treated with systemic antineoplastic agents for pancreatic cancer with distant metastases and who met all pre-determined patient selection criteria determined in view of the patient selection criteria in each trial performed so far for Compound A, Nivolumab and mFFX therapy or GnP therapy were selected.\nCompound A was orally administered once a day at a dose of 20 mg or 40 mg per administration, wherein the administration was continued until predetermined criteria for discontinuation of administration related to Compound A was met. Note that when Compound A, Nivolumab and the mFFX therapy or GnP therapy were administered on the same day, Compound A and Nivolumab were administered first, and after Compound A and Nivolumab were administered, followed by starting of the mFFX therapy or GnP therapy. […]"}, "[3]": {"test_system": "advanced or recurrent non-small cell lung cancer refractory to a combination therapy including an anti-PD-1 antibody or an anti-PD-L1 antibody, and a platinum …", "experiment": "Open-label, uncontrolled study: Compound A, Nivolumab, Docetaxel and Ramucirumab as secondary therapy", "settings": "Compound A 20 mg or 40 mg orally once a day + Nivolumab 360 mg IV at 3-week intervals + Docetaxel 60 mg/m^2 and Ramucirumab 10 mg/kg at 3-week intervals; RECIST Guideline 1.1; 8 months after the registration of the first patient", "from_the_text": "The purpose of this study is to examine the tolerability, safety, and efficacy of a combination of Compound A, Nivolumab, Docetaxel, and Ramucirumab as a secondary therapy in non-small cell lung cancer patients who had progressed or relapsed refractory to a combination therapy including an anti-PD-1 antibody or an anti-PD-L1 antibody and a platinum preparation. This trial can evaluate the effect of combination of Compound A, Nivolumab, Docetaxel, and Ramucirumab.\nPatients with stage IV or recurrent non-small cell lung cancer\nCompound A was orally administered once a day at a dose of 20 mg or 40 mg per administration, and the administration was continued until the predetermined criteria for discontinuation of administration related to Compound A were met. […]\nA principal investigator or a sub-investigator measured a tumor diameter of a target lesion according to RECIST Guideline 1.1 to determine the antitumor effect. […] Imaging diagnosis in the treatment phase was performed at 6-week intervals (±7 days) from Day 1 of the first cycle to Week 54, and thereafter at 12-week intervals (±7 days), and the tumor diameter was measured.\nThe overall response and the best overall response were diagnostic imaging results evaluated based on the RECIST Guideline 1.1. […]"}, "[4]": {"test_system": "curatively resectable locally advanced rectal cancer", "experiment": "Open-label, uncontrolled study: Compound A or Compound A plus Nivolumab as preoperative adjuvant therapy after preoperative chemoradiotherapy", "settings": "Compound A 40 mg QD oral alone then with Nivolumab 240 mg Q2W IV (cohort 1) or in combination (cohort 2), after preoperative CRT; pCR = AJCC Tumor regression grade 0 (ypT0N0); 10 months after registration of the first patient", "from_the_text": "The purpose of this study was to examine the efficacy, pharmacokinetics and safety of Compound A administered alone and/or Compound A and Nivolumab administered in combination as a preoperative adjuvant therapy after a preoperative chemoradiotherapy (CRT) for curatively resectable locally advanced rectal cancer. The trial could evaluate the effect of Compound A and/or a combination of Compound A and Nivolumab as a preoperative adjuvant therapy.\nCuratively Resectable Locally Advanced Rectal Cancer\nAs the preoperative CRT, the investigational new drug was administered to a patient who was treated and satisfied the following conditions. • 45 Gy/25 times of irradiation to the pelvic cavity and 5.4 Gy/3 times of boost irradiation to the primary lesion were performed. • the administration of Capecitabine was started at a dose of 1,650 mg/m^2 (825 mg/m^2 twice a day) per day. The starting dose was determined based on Method D of dosage and administration of Xeloda (registered trademark) tablet 300. • The oral administration of Capecitabine was performed in a period corresponding to 75% of 28 times which was the number of times of irradiation of radioactive ray in combination with the irradiation of radioactive ray (for example, in the case of 50.4 Gy/28 times of irradiation, oral administration for 21 days or 42 times or more as oral administration in the morning and evening). […]"}},
  "data": [
    {"compound": "CC(C)NC(=O)c1ccc2c(c1)[C@]1(CCO2)C[C@H]1C(=O)Nc1cc(C#N)ccc1CCCC(=O)O", "note": "[Compound A, 4-[4-cyano-2-({(2′R,4S)-6-[(propane-2-yl)carbamoyl]-2,3-dihydrospiro[1-benzopyran-4,1′-cyclopropane]-2′-carbonyl}amino)phenyl]butanoic acid]", "values": [
      {"measurement": "cases determined to be PR", "setting": "[1]", "value": 2, "unit": "cases"},
      {"measurement": "cases judged to be PR", "setting": "[2]; Compound A 20 mg or 40 mg orally once a day + Nivolumab 480 mg IV at 4-week intervals + GnP therapy, 9 months after registration of the first patient", "value": "two"},
      {"measurement": "case determined to be PR", "setting": "[2]; Compound A 20 mg or 40 mg orally once a day + Nivolumab 480 mg IV at 4-week intervals + mFFX therapy, 9 months after the registration of the first patient", "value": "one"},
      {"measurement": "case determined to be PR", "setting": "[3]", "value": "one"},
      {"measurement": "cases determined to be pCR", "setting": "[4]", "value": 3, "unit": "cases"}
    ]}
  ]
}
